Measured values taken from patent publication US20220160901A1, “Stimuli-Responsive Compositions, Imaging Systems, and Methods for Using the Same for Biomedical Applications” (The Regents of the University of California, priority 2019, published 2022).

Assay: T1 values measured using NMR
Design: unit not given here

With Fe(Me-bik)3](BF4)2.25H2O the “T1 at 23° C.” value (1 mg/mL) was 2.9433, the “T1 at 40° C.” value (1 mg/mL) was 4.2093 and the “T1 at 60° C.” value (1 mg/mL) was 5.3784. The “T1 at 23° C.” value (2 mg/mL) was 2.8944, the “T1 at 40° C.” value (2 mg/mL) was 3.9614 and the “T1 at 60° C.” value (2 mg/mL) was 4.9954. The “T1 at 23° C.” value (4 mg/mL) was 2.7392, the “T1 at 40° C.” value (4 mg/mL) was 3.4784 and the “T1 at 60° C.” value (4 mg/mL) was 4.2761. The “T1 at 23° C.” value (8 mg/mL) was 2.7413, the “T1 at 40° C.” value (8 mg/mL) was 3.434 and the “T1 at 60° C.” value (8 mg/mL) was 4.172.
